The values below come from ChEMBL document CHEMBL1201862, “PubChem BioAssay data set” (2004).

The source made the active and inactive calls.

The target in data set [1] is T1, Short transient receptor potential channel 4 (Mus musculus, UniProt Q9QUQ5).
T1 sequence (Q9QUQ5 whole entry): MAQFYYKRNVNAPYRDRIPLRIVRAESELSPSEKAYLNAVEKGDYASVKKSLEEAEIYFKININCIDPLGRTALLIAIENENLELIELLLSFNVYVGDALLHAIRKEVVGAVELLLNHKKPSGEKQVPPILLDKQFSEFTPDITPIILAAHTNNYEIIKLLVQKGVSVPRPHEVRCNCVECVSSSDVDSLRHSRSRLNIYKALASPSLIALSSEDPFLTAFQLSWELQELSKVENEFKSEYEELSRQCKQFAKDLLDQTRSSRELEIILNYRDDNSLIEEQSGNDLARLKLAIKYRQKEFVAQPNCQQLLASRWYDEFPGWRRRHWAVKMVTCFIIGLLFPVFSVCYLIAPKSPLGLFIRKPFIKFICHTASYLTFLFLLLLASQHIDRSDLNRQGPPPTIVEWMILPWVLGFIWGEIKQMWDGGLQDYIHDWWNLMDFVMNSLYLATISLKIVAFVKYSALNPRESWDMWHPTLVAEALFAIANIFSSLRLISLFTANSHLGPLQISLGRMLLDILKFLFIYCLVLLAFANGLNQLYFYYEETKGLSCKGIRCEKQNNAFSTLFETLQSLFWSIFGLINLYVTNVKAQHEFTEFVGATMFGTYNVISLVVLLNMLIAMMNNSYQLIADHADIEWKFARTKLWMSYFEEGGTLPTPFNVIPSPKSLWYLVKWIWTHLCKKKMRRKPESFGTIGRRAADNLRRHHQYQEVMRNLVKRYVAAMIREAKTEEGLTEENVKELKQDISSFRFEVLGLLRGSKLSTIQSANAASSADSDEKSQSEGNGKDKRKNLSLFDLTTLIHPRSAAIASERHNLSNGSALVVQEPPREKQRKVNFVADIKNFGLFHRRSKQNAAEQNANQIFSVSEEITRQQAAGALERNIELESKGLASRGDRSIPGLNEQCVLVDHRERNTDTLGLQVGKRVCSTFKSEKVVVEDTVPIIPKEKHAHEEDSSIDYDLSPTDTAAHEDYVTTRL
Kind of data set: block of DAMGO-driven TRPC4 calcium entry – cell-based, HEK293 TRPC4/mu-opioid, Fluo-4 calcium, dose response (AID 434942).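 Also: potency of inhibitors blocking the TRPC4 calcium response.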 The format is functional.

Data set [2] has as its target Cytochrome P450 2D6 (Homo sapiens, UniProt P10635).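 Also: CYP2D6 member of a cytochrome P450 panel assay.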
Data set [3] addresses T2, Cytochrome P450 2C9 (Homo sapiens, UniProt P11712).
Data set [4] in a line: THP-1 cell cytotoxicity, dose response, cytotoxicity control for non-replicating M. tuberculosis project (AID 489025). The format is functional.
Data set [5] in a line: Vero E6 cell cytotoxicity, dose response, cytotoxicity control for non-replicating M. tuberculosis project, secondary assay (AID 492998). The note with it: Vero C1008. The format is functional, VeroE6.
Data set [6] can be described thus: cells. Type of data set: functional.
Data set [7] can be described thus: Trypanosoma cruzi growth suppression in host cells – NIH3T3 host cells, beta-gal luminescence, confirmation (AID 2044).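 Also: intracellular parasites grown in NIH/3T3 mouse fibroblasts as host cells; luminescent beta-galactosidase reporter signal from transgenic T. cruzi replicating inside host cells; inhibitors lower the luminescence signal.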 The format is functional, cell-based.
Data set [8] can be described thus: NIH3T3 cell viability loss – ATP luminescence, mouse fibroblasts, counter-screen, dose response (AID 2010).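 Also: cells exposed to compound for about 90 hours before reading.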 The format is functional, cell-based.
The subject of data set [9] is HEK293. As to the kind of experiment: inhibition of NOD1-driven NF-kB reporter – cell-based, luminescence, uHTS, primary screen (AID 1578). The note with it: Homo sapiens. The format is functional.
Data set [10] has as its system HEK293. As to the kind of experiment: cells. The format is functional, cell-based. To be noted: Homo sapiens.
The test system of data set [11] is HEK293. As to the kind of experiment: cells. Type of data set: functional, cell-based. The note with it: Homo sapiens. This is another data set of the same source.
For data set [12], the target named is Nucleotide-binding oligomerization domain-containing protein 2 (Homo sapiens, UniProt Q9HC29). As to the kind of experiment: inhibition of NOD2-driven NF-kB reporter – cell-based, luminescence, uHTS, HEK293 (AID 1566). Type of data set: functional.
Chain of Nucleotide-binding oligomerization domain-containing protein 2 (Q9HC29 whole entry, the tested form may be a part): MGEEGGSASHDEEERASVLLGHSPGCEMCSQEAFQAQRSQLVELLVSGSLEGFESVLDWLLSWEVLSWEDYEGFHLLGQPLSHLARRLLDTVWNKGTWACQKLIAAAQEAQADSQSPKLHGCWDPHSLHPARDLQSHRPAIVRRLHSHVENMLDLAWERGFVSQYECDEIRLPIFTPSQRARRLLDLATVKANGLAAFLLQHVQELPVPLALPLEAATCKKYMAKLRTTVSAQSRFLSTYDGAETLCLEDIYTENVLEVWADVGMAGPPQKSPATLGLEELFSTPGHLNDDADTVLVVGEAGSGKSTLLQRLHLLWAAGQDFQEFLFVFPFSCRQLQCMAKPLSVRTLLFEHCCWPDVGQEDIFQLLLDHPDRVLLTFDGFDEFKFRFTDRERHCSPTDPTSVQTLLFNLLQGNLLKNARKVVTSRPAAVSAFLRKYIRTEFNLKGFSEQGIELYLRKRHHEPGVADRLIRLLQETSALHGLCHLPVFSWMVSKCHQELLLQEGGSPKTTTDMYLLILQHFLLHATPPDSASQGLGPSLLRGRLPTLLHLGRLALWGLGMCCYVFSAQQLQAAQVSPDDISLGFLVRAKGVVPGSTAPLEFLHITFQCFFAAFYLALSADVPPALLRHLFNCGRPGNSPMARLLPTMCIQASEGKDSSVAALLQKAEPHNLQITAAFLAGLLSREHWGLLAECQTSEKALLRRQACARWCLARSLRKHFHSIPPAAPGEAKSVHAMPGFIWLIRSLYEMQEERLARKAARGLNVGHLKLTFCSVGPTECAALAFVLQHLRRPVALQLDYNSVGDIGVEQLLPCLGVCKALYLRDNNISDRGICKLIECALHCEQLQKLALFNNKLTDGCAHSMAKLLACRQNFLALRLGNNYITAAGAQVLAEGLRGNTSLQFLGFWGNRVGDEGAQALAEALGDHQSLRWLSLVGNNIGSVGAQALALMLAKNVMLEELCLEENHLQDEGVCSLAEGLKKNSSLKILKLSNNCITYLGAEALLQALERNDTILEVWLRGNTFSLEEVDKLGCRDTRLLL
The subject of data set [13] is HEK293. Kind of data set: NOD2 signaling inhibitors in MDP-stimulated cells, cell-based, uHTS, luminescence (AID 2001). Type of data set: functional. To be noted: Homo sapiens.
Data set [14] relates to HEK293. As to the kind of experiment: cells. Type of data set: functional, cell-based. To be noted: Homo sapiens. This is another data set of the same source.
Data set [15] addresses Cytochrome P450 2C19 (Homo sapiens, UniProt P33261). As to the kind of experiment: Cytochrome panel assay with activity outcomes. Panel member name: p450-cyp2c19 Compounds with AC50 equal or less than 10 uM are considered active. The format is functional. The note with it: read-out: AC50.
Data set [16] has as its target T3, Cytochrome P450 1A2 (Homo sapiens, UniProt P05177).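 Also: PubChem cytochrome P450 panel assay, CYP1A2 panel member.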
T3 sequence (P05177 whole entry): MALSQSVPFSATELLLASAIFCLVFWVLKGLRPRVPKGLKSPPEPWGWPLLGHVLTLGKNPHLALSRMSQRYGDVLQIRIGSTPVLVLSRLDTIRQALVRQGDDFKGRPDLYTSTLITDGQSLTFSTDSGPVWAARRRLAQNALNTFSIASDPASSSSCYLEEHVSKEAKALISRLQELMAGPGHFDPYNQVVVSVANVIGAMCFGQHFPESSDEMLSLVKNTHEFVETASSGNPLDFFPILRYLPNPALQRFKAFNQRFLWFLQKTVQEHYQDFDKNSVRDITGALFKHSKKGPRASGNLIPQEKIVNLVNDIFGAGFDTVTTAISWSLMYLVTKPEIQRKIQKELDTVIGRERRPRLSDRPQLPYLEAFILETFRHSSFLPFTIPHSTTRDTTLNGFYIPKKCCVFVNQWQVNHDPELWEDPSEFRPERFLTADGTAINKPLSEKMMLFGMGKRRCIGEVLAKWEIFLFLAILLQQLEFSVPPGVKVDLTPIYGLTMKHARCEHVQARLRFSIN

For data set [17], the target named is T4, Cytochrome P450 3A4 (Homo sapiens, UniProt P08684).
T4 sequence (P08684 whole entry): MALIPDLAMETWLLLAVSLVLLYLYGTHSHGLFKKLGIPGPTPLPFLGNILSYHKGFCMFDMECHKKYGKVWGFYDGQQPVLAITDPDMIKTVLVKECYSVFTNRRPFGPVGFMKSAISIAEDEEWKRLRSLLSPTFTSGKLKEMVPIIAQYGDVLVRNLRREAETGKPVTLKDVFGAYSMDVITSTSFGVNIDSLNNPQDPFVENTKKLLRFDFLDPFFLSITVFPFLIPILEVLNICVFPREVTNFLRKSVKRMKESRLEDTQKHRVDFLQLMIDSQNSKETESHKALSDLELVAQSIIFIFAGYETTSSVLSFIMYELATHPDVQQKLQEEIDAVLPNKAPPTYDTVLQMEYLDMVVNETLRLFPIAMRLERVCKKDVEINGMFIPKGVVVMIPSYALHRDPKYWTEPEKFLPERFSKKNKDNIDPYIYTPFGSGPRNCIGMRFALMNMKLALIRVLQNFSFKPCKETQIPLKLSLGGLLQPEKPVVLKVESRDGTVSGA
Data set [18] has as its target T2, Cytochrome P450 2C9. This is another data set of the same source.
In data set [19] the target is T5, Carboxy-terminal domain RNA polymerase II polypeptide A small phosphatase 1 (Homo sapiens, UniProt Q9GZU7).
T5 sequence (Q9GZU7 whole entry): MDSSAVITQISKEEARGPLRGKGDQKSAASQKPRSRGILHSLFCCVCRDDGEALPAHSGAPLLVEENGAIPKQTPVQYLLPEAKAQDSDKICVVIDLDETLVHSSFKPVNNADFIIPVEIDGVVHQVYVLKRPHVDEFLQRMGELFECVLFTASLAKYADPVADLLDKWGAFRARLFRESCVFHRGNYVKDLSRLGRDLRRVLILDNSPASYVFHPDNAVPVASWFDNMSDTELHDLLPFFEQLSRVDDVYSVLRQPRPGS
As to the kind of experiment: CTDSP1 inhibitors, concentration-response, biochemical, absorbance readout, ultra-high-throughput screen actives (AID 540297). Type of data set: functional.

Data set [20] addresses T6, Rac GTPase-activating protein 1 (Homo sapiens, UniProt Q9H0H5).
T6 sequence (Q9H0H5 whole entry): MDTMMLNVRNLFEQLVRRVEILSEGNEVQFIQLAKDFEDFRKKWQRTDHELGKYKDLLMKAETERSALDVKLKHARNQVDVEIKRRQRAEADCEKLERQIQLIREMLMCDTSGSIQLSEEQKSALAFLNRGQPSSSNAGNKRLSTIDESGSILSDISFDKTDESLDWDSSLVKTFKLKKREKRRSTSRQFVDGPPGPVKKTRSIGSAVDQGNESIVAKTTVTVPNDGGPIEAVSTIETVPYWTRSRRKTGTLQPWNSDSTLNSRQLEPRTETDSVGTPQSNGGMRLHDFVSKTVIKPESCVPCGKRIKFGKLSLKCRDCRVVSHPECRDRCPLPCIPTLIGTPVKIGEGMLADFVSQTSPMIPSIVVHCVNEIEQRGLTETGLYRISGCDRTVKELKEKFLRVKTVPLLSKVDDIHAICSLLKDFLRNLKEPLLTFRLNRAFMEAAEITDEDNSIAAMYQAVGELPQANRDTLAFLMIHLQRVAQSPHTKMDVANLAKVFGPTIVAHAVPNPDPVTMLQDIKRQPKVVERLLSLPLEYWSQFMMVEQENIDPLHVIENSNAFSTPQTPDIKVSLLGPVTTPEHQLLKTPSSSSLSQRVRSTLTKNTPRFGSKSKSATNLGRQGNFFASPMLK
As to the kind of experiment: blockers of MgcRacGAP-driven Rac1 GTP hydrolysis – biochemical, ADP Hunter fluorescence, primary and confirmatory, confirmation (AID 624330). The format is functional.

In data set [21] the target is T4, Cytochrome P450 3A4. The source holds these as a separate data set.

T2 sequence (P11712 whole entry): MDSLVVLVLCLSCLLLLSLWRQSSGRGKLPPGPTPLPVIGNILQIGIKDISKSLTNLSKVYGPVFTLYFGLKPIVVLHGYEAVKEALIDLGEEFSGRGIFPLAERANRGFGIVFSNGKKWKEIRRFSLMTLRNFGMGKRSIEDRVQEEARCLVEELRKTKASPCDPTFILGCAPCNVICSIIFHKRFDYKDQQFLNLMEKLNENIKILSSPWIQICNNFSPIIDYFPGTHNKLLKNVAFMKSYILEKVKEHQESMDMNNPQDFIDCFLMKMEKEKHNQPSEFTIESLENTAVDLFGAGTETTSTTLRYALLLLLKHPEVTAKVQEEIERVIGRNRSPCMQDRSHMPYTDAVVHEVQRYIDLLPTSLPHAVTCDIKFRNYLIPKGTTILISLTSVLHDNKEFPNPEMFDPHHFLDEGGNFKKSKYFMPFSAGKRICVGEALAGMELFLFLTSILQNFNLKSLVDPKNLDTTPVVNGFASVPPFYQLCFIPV
Chain of Cytochrome P450 2D6 (P10635 whole entry): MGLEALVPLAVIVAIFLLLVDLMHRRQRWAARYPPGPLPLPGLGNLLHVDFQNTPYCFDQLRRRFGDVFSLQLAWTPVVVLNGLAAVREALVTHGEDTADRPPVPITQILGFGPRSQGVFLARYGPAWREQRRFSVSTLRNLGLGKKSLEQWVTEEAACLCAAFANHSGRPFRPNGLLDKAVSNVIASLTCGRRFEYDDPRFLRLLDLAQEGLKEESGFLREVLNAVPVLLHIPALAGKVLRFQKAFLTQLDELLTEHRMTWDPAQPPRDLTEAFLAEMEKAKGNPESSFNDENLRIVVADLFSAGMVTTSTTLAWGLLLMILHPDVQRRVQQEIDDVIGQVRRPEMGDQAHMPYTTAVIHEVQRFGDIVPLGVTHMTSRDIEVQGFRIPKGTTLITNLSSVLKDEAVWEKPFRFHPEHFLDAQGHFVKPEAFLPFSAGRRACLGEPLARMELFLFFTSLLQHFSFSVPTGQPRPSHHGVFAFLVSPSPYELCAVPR
Chain of Cytochrome P450 2C19 (P33261 whole entry): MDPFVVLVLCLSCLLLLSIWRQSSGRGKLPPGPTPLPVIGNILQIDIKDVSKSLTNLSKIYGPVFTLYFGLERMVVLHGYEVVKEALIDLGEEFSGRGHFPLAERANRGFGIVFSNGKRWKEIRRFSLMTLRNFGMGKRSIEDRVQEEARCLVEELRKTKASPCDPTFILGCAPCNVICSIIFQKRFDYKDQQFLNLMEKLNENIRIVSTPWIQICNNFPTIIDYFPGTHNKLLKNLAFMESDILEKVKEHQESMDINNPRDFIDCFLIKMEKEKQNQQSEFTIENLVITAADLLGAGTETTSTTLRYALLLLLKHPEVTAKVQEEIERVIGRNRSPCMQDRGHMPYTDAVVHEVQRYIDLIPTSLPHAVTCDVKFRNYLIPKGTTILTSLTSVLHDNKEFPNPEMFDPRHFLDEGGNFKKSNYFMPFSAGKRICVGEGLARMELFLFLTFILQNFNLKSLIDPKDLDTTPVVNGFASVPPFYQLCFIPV

On to `Cc1cccc(CCN(C(=O)c2snc(C(N)=O)c2N)C(C(=O)NCC2CCCO2)c2ccc(F)cc2)c1` (stereo unspecified), for which the half-maximal effective concentration (EC50) in data set [1] is 2.66 µM (active).
As to `CCN(CC)c1nc2ccccc2[nH]1.Cl`, the values for the AC50 in [2] and in data set [3] were 25.1 µM (inconclusive) and “inconclusive”, respectively.
With `CCOC(=O)C1=C(C)C/C(=N\NC(=O)c2ccccc2O)CC1`, the half-maximal cytotoxic concentration (CC50) in [4] is 21.8 µM (active); in data set [5] it was 15.3 µM (active). Also, the IC50 in data set [6] was 10.8 µM (active).
As for `O=C(N/N=C/c1ccc([N+](=O)[O-])s1)c1cccnc1`, the EC50 in data set [7] was 429 nM (active); in data set [8], > 60 µM (not active). The figures for the CC50 in data set [4] and in [5] were 14.9 µM (active) and 14.6 µM (active), respectively. In [6], the IC50 was 11.2 µM (active).
Regarding `CC1CCc2sc3ncnc(N4CCOCC4)c3c2C1` (stereo unspecified), the values for the EC50 in data set [9] and in data set [12] were 6.02 µM (active) and 8.76 µM (active), respectively. For the same molecule, the IC50 in data set [10] is 3.54 µM (active); in data set [11], > 20 µM (inactive); in data set [13], 4.85 µM (active); in data set [14], > 20 µM (inactive).
Take `Cc1ccc(OCC(=O)NNC(=O)c2cc3ccccc3o2)cc1C`: the AC50 is 3.55 µM (inconclusive) in data set [15], 2.51 µM (inconclusive) in [16] and “inconclusive” in data set [3].
On to `c1ccc2c(CSCCc3ccncc3)cccc2c1`, for which the AC50 result in data set [17] is on record as “inconclusive”.
Consider `CCOC(=O)c1ccc2nc(C)c(CCC(C)=O)c(Cl)c2c1`, for which the values for the AC50 in [18] and in [17] were 1 µM (inconclusive) and “inconclusive”, respectively.
Regarding `Cc1ccc(C)c(S(=O)(=O)NCc2ccc(C(=O)N3CCC(Cc4ccccc4)CC3)cc2)c1`, the figures for the EC50 in data set [7] and in data set [8] were 2660 nM (active) and > 60 µM (not active), respectively. In addition, the AC50 entry in data set [3] is “inconclusive”.
Regarding `O=C(N/N=C/c1ccco1)C1CC1c1ccccc1` (stereo unspecified), the IC50 in data set [19] was 9.59 µM (active).
In the case of `Cc1ccccc1C(=O)NC(C)c1ccc2c(c1)CCCC2` (stereo unspecified), the AC50 in data set [2] was 15.8 µM (inconclusive); in data set [3], “inconclusive”.
In the case of `CCOc1cc(/C=C2\C(=N)N3N=CSC3=NC2=O)ccc1OS(=O)(=O)c1ccccc1`, the EC50 in data set [1] is 4.73 µM (active).
On to `COc1ccc(C)cc1NC(=O)CSc1ccc(-c2sc(C)nc2C)nn1`, for which the results for the EC50 in [9] and in data set [12] were 9.47 µM (active) and 4.63 µM (active), respectively. Moreover, the IC50 was 14.1 µM (active) in [10], > 20 µM (inactive) in [11], 10.7 µM (inactive) in [13] and > 20 µM (inactive) in data set [14].
Turning to `c1ccc2[nH]c(CCCCc3nc4ccccc4[nH]3)nc2c1`, the EC50 in [1] was 2.37 µM (active).
With `COc1ccc2c(Cl)cc(NC(=S)Nc3ccccc3)nc2c1`, the concentration at half-maximal activity (AC50) in [15] is 3.16 µM (inconclusive); in [18], 3.98 µM (inconclusive); in data set [17], “inconclusive”.
In the case of `Cn1cccc1C(=O)N1CCC2(CC1)CCN(c1ccccc1)CC2`, the concentration at half-maximal activity (AC50) in data set [16] is 12.6 µM (inconclusive); in data set [17] it was “inconclusive”.
Consider `Cc1cc(C(=O)c2cnc(/N=C/N(C)C)s2)cc(C)c1O`, for which the AC50 in data set [15] was 25.1 µM (inconclusive); in data set [2], 25.1 µM (inconclusive); in data set [21], 25.1 µM (inconclusive); in [3], “inconclusive”. Moreover, the IC50 in data set [20] was 108 µM (active).
Consider `Cc1cc(C)cc(OCC(=O)Nc2nc3ccc([N+](=O)[O-])cc3s2)c1`, for which the EC50 was 4.56 µM (active) in data set [9] and 7.65 µM (active) in [12]. In addition, the IC50 in [10] is 1.83 µM (active); in [11], > 20 µM (inactive); in data set [13], 8.1 µM (active); in data set [14], > 20 µM (inactive).
As for `CC(=O)CC1(OC(C)=O)C(=O)N(C)c2ccccc21` (stereo unspecified), the values for the CC50 in [4] and in [5] were 35.5 µM (active) and 15.5 µM (active), respectively. Moreover, the IC50 in [6] was 14.4 µM (active).
